Data on two compounds can be found in paper PMC5363247 (Angewandte Chemie (International Ed. in English), 2017).

For test [1], the target named is T1, factor Xa (Homo sapiens, UniProt P00742). In words: factor Xa enzyme activity. The class given is biochemical. The settings on record: initial rates, Michaelis-Menten fit.
For test [2], the target named is T1, factor Xa. In words: fragment ligation assay, detection via biochemical assay. The settings on record: read-out: inhibition of factor Xa.

T1 sequence (P00742 235-488 limits assumed): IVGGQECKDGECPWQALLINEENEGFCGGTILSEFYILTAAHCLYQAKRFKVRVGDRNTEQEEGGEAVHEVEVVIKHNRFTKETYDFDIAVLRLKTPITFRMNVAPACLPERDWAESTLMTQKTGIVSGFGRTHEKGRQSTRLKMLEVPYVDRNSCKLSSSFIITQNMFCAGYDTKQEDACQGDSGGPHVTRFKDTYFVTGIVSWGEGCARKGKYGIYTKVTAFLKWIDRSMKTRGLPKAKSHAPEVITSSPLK
T1 sequence (P00742 41-179 partner limits assumed): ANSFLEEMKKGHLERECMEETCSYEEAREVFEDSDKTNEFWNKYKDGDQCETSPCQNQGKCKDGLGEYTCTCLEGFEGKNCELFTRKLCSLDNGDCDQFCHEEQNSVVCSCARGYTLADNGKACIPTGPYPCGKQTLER

Turning to “7‐(N‐Boc‐leucinyl‐glycinyl‐arginyl)‐7‐amino‐4‐methylcoumarin”, at factor Xa [1], the “K M of fluorogenic substrate” value was found to be 76 µM.
By inhibition is commonly meant the drop in the measured response relative to a control, in per cent. For the compound `N=C(N)c1ccc(CN)cc1` [compound 14, 4‐Aminomethylbenzamidine], the inhibition at 285 µM on factor Xa [2] was found to be 20%.
